Measured values reported in patent US12053465B2, “KCC2 expression enhancing compounds and uses thereof” (Whitehead Institute for Biomedical Research, priority 2017, dated 2024).
“Also recorded” adds a separate entry of the source.

What was measured:
Format in all cases: cell-based
KCC2 expression [1] = test: Western blot of KCC2 in cultured human RTT neurons; settings: Western blot; for concentration at which treatment significantly increases KCC2 expression: cultured ESC-derived human RTT neurons; for KCC2 expression: cultured human RTT neurons
Procedure, shortened: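 Cultured neurons lysed in RIPA buffer (pH 7.6) with sonication; immunoblotted on PVDF with KCC2 antibody (1:2000) overnight at 4° C., HRP secondary.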

human RTT neurons [2] = test: Neuronal morphology analysis of cultured human RTT neurons; settings: for neurite complexity (Sholl analysis): vs DMSO- or MeBIO-treated
Source text: Moreover, a reduction in the number or the strength of excitatory glutamatergic synapses in RTT neurons has been observed in postmortem RTT patient brain samples (30), mouse models of RTT (53), and human stem cell-derived RTT neurons (54). Electrophysiology recording was utilized to assess whether KEECs could rescue the deficits in EGABA and excitatory synaptic transmission of RTT neurons. […] We further investigated whether the beneficial effect of KEECs is a direct result of the increases in neuronal KCC2 gene expression. […] Deficits in a number of morphological measurements, including nuclei size and neurite complexity and branching, are hallmarks of RTT neurons (54-56). […] To validate the morphological measurements, electrophysiological measurements of the neuronal membrane capacitance (Cm), an indicator of neuronal cell size (57) that is reduced in RTT neurons, were conducted. […] Fluorescent images of randomly-selected neurons were acquired on a Nikon Eclipse Ti epifluorescence microscope equipped with 20× lens. Nucleus size analysis of DAPI-stained neuronal nucleus were performed with ImageJ. Sholl analysis and measurements of the total neurite length and branch points were performed with the Simple Neurite Tracer plugin of the ImageJ software. Morphological analyses were carried out with about 60 randomly-selected neurons per treatment group. Image acquisition and analysis were carried out by different researchers, and automated analysis software pipeline were utilized to reduce human bias.

human RTT neurons [3] = test: Membrane capacitance (Cm) of cultured human RTT neurons; settings: for increase of neuronal Cm: RTT neurons transfected with KCC2 shRNA; for membrane capacitance (Cm): cultured human RTT neurons, vs DMSO or MeBIO control
Source text: Moreover, a reduction in the number or the strength of excitatory glutamatergic synapses in RTT neurons has been observed in postmortem RTT patient brain samples (30), mouse models of RTT (53), and human stem cell-derived RTT neurons (54). Electrophysiology recording was utilized to assess whether KEECs could rescue the deficits in EGABA and excitatory synaptic transmission of RTT neurons. […] We further investigated whether the beneficial effect of KEECs is a direct result of the increases in neuronal KCC2 gene expression. […] Deficits in a number of morphological measurements, including nuclei size and neurite complexity and branching, are hallmarks of RTT neurons (54-56). […] To validate the morphological measurements, electrophysiological measurements of the neuronal membrane capacitance (Cm), an indicator of neuronal cell size (57) that is reduced in RTT neurons, were conducted.
Functionally mature human neuron cultures were obtained by seeding human WT or isogenic RTT NPCs on a layer of primary mouse astrocyte culture as previously described (57). In the cultured WT human neurons, KCC2 expression reaches mature level between 2-3 months (7). We therefore treated the WT or RTT human neurons 8-12 weeks in culture, with compounds for a duration of two weeks before conducting whole-cell patch-clamp recording. The extracellular bath solution, that perfused the recording chamber, consists of (in mM): 120 NaCl, 30 glucose, 25 HEPES, 5 KCl, 2 CaCl2, 1 MgCl2. The pH was adjusted to 7.3 with NaOH. The high-chloride internal pipette solution consists of (in mM): 147 KCl, 5 Na-phosphocreatine, 2 EGTA, 10 HEPES, 4 MgATP, and 0.5 Na2GTP; the pH 7.3 was adjusted with KOH. To record mini EPSC, the membrane potential was held at −70 mV, and 0.5 μM of TTX and 50 μM Picrotoxin were applied with bath solution to block action potential and GABAergic synaptic transmission.

KCC2 expression [4] = test: Western blot of KCC2 in cultured WT human neurons; settings: cultured WT human neurons (WIBR1); Western blot
human RTT neurons [5] = test: Gramicidin-perforated patch recording of EGABA in cultured human RTT neurons

Row | Structure (SMILES) | concentration at which treatment significantly increases KCC2 expression (KCC2 expression [1]) | KCC2 expression (KCC2 expression [1]) | KCC2 expression (KCC2 expression [1]; listed as KIN 001-043) | nucleus size (human RTT neurons [2]) | number of neurite branches (human RTT neurons [2]) | total neurite length (human RTT neurons [2]) | neurite complexity (Sholl analysis) (human RTT neurons [2]) | increase of neuronal Cm (human RTT neurons [3]) | membrane capacitance (Cm) (human RTT neurons [3]) | KCC2 expression (KCC2 expression [4]) | shift in EGABA (human RTT neurons [5]; RTT neurons transfected with KCC2 shRNA) | shift in EGABA (human RTT neurons [5]; cultured human RTT neurons, DMSO about −50 mV, WT −70 mV)
1 | O=C1Nc2cc(Br)ccc2/C1=C1/Nc2ccccc2/C1=N\O [BIO, (2Z,3E)-6′-bromo-3-(hydroxyimino)-[2,3′-biindolinylidene]-2′-one] | 0.3 µM | increased KCC2 expression levels significantly | increase KCC2 expression | significantly increase the nucleus size | significantly increase | significantly increase | significant increase in neurite complexity | abolished the capability | significantly higher Cm, at levels comparable to isogenic WT human neurons | significantly increased KCC2 expression |  | 
2 | O=C(c1ccc(/C=C/c2n[nH]c3ccccc23)cc1)N1CCNCC1 [KW-2449, (E)-(4-(2-(1H-indazol-3-yl)vinyl)phenyl)(piperazin-1-yl)methanone] | 0.1 µM | increase KCC2 expression; also recorded: significant enhancement of KCC2 expression |  | significantly increase the nucleus size | significantly increase | significantly increase | significant increase in neurite complexity | abolished the capability | significantly higher Cm, at levels comparable to isogenic WT human neurons | significant increase in KCC2 expression in a dose-dependent manner | failed to hyperpolarize the EGABA | significant hyperpolarizing shift in EGABA to levels comparable to WT neurons
